Molecular target: Kv1.5 (Homo sapiens, UniProt P22460)
Assay: Kv1.5 inhibition assay (IKur inhibitor assay per cited references)
Format: cell-based
Details: at 0.3 μM
Text: Assays to determine the degree of activity of a compound as an IKur inhibitor are well known in the art and are described in references such as J. Gen. Physiol. Apr.; 101 (4):513-43, and Br. J. Pharmacol. 1995 May; 115(2):267-74.

Sequence of Kv1.5 (P22460 whole entry): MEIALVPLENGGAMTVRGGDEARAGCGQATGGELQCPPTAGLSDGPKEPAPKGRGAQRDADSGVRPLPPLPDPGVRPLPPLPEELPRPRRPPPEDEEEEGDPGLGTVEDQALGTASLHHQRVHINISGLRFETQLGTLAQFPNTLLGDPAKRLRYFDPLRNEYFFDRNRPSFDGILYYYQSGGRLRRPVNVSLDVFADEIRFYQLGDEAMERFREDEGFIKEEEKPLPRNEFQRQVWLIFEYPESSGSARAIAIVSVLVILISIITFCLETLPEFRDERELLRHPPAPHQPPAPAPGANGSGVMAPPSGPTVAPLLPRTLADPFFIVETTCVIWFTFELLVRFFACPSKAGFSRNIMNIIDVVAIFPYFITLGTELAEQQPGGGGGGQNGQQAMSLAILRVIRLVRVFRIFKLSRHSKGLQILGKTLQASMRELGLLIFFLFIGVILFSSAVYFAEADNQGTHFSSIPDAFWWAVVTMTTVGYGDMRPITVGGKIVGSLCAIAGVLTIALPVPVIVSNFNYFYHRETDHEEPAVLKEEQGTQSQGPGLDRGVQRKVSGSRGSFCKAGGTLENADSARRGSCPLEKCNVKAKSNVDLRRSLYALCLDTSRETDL

| SMILES | Kv1.5% inhibition [%] | inhibition at 0.3 µM [%] |
| --- | --- | --- |
| CC1=C(C(=O)N(C)S(=O)(=O)c2ccc(F)cc2)C(c2ccc(Cl)c(Cl)c2)n2nc(C)cc2N1 (single isomer, unassigned) [Example 80 Isomer 2, 7-(3,4-Dichlorophenyl)-N-(4-fluorophenylsulfonyl)-N,2,5-trimethyl-4,7-dihydropyrazolo[1,5-a]pyrimidine-6-carboxamide] | 85 | – |
| CCN(C(=O)C1=C(C)Nc2cc(C(F)(F)F)nn2C1c1ccc(Cl)c(Cl)c1)S(=O)(=O)c1ccc(Cl)cc1 (single isomer, unassigned) [Example 93 Isomer 1, N-(4-Chlorophenylsulfonyl)-7-(3,4-dichlorophenyl)-N-ethyl-5-methyl-2-(trifluoromethyl)-4,7-dihydropyrazolo[1,5-a]pyrimidine-6-carboxamide] | – | 31 |
| COc1ccc(S(=O)(=O)N(C)C(=O)C2=C(C)Nc3ccnn3C2c2ccc(Cl)c(Cl)c2)cc1 (racemic) [Example 73, 7-(3,4-Dichlorophenyl)-N-(4-methoxyphenylsulfonyl)-N,5-dimethyl-4,7-dihydropyrazolo[1,5-a]pyrimidine-6-carboxamide] | – | 86 |
| CC1=C(S(=O)(=O)Cc2ccccc2)C(c2ccc(Cl)c(Cl)c2)n2nc(C)cc2N1 (racemic) [Example 14, 6-(Benzylsulfonyl)-7-(3,4-dichlorophenyl)-2,5-dimethyl-4,7-dihydropyrazolo[1,5-a]pyrimidine] | – | 50.4 |
| CCN(CC)S(=O)(=O)C1=C(C)Nc2cc(C)nn2C1c1ccc(Cl)c(Cl)c1 (single isomer, unassigned) [Example 61 Isomer 2, 7-(3,4-Dichlorophenyl)-N,N-diethyl-2,5-dimethyl-4,7-dihydropyrazolo[1,5-a]pyrimidine-6-sulfonamide] | 42.3 | – |

Continued, values first:

| Kv1.5% inhibition [%] | inhibition at 0.3 µM [%] | SMILES |
| --- | --- | --- |
| – | 30.7 | CC1=C(S(=O)(=O)c2ccccc2)C(c2ccc(F)c(C)c2)n2nc(C(F)(F)F)cc2N1 (racemic) [Example 22, 7-(4-Fluoro-3-methylphenyl)-5-methyl-6-(phenylsulfonyl)-2-(trifluoromethyl)-4,7-dihydropyrazolo[1,5-a]pyrimidine] |
| – | 94.5 | CC1=C(S(=O)(=O)c2ccc(Cl)cc2)C(c2ccc(C)c(F)c2)n2nc(C(F)(F)F)cc2N1 (single isomer, unassigned) [Example 42 Isomer 1, 6-(4-Chlorophenylsulfonyl)-7-(3-fluoro-4-methylphenyl)-5-methyl-2-(trifluoromethyl)-4,7-dihydropyrazolo[1,5-a]pyrimidine] |
| – | 75.8 | CC1=C(S(=O)(=O)c2ccccn2)C(c2ccc(Cl)cc2)n2nc(C(F)(F)F)cc2N1 (single isomer, unassigned) [Example 47 Isomer 2, 7-(4-Chlorophenyl)-5-methyl-6-(pyridin-2-ylsulfonyl)-2-(trifluoromethyl)-4,7-dihydropyrazolo[1,5-a]pyrimidine] |
| 31 | – | CC1=C(S(=O)(=O)N(C)c2ccccc2)C(c2ccc(Cl)c(Cl)c2)n2nc(C(F)(F)F)cc2N1 (single isomer, unassigned) [Example 63 Isomer 2, 7-(3,4-Dichlorophenyl)-N,5-dimethyl-N-phenyl-2-(trifluoromethyl)-4,7-dihydropyrazolo[1,5-a]pyrimidine-6-sulfonamide] |
| – | 42.3 | COc1ccc(S(=O)(=O)C2=C(C)Nc3cc(C)nn3C2c2ccc(Cl)cc2)cc1 (single isomer, unassigned) [Example 19 Isomer 2, 7-(4-Chlorophenyl)-6-(4-methoxyphenylsulfonyl)-2,5-dimethyl-4,7-dihydropyrazolo[1,5-a]pyrimidine] |
| – | 48.6 | CC1=C(S(=O)(=O)NC(C)(C)C)C(c2ccc(Cl)cc2)n2nc(C(F)(F)F)cc2N1 (single isomer, unassigned) [Example 57 Isomer 1, N-tert-Butyl-7-(4-chlorophenyl)-5-methyl-2-(trifluoromethyl)-4,7-dihydropyrazolo[1,5-a]pyrimidine-6-sulfonamide] |
